Common to all, as to format: cell-based
In one assay the target is T1, SALL4 (Homo sapiens, UniProt Q96SW2+Q9UJQ4).
T1 construct: SALL4 degradation in the Kelly cell line was investigated; endogenous in cells; host or cells: Kelly
Nature of the assay: SALL4 degradation assay, Kelly cell line (Western blot densitometry). As to conditions: Kelly cells, 24 h; for % of SALL4 protein reduction: 100 nM, average from n ≥ 2 experiments. As for the experimental part: (§1) Cells were seeded on 6- or 12-well plates, and the compounds to be tested were added at the desired concentration range. […] After 24 h incubation (37° C., 5% CO2), cells were harvested, washed and cell lysates were prepared using RIPA lysis buffer. The amount of protein was determined via BCA assay, and the appropriate quantity was then loaded on the precast gel for the protein separation. After primary and secondary Ab staining, the membranes were washed and signals developed. The densitometry analysis was implemented to obtain the numeric values used later in the protein level evaluation process.
On the technique in general: Immunoblotting shows a protein as a band on a membrane.

A further assay concerns Kelly cells. Nature of the assay: Cell viability CTG assay, Kelly. As to conditions: 72 h, 0.001-50 μM, read-out: Kelly Geomean absolute IC50 by molecule, 72 H. The method, then: (§2) The effect of various compounds of the invention and various reference compounds on cell viability in various cell lines was investigated, using the Cell Viability—CTG Assay Protocol below. Hep3B, Kelly, H929, KG-1 and SNU-398 cells were maintained in respective cell medium (see Table 8, below). The cells were seeded on the 96-well or 384-white plates, and the compounds to be tested were added at the desired concentration range. Compounds are diluted in DMSO, and the DMSO concentration is kept constant at 0.25% v/v across the assay plate. After 72 h incubation (37° C., 5% CO2), CellTiter-Glo® Reagent (Promega/G7570) was added to the wells. Plates are shaken for 4 minutes and incubated for 8 minutes in the dark prior to reading luminescence (LU) by using the CLARIOstar Multimode Plate Reader. The signal is proportional to the amount of ATP, which is directly proportional to the number of cells present in the culture.
(§3) Luminescence (RLU) values were normalized to DMSO control. Dose response is assessed by non-linear regression and IC50 calculation with the average of technical duplicate of percentage inhibition. IC50 values are reported as absolute IC50 values, being the concentration of test compound at the intersection of the concentration-response curves with T/C=50%. For calculation of mean IC50 values the geometric mean is used.

For a further assay, the system named is Hep3B cells. Nature of the assay: Cell viability CTG assay, Hep3B. As to conditions: Homo sapiens, 72 h, 0.001-50 μM, read-out: Hep3B Geomean absolute IC50 by molecule, 72 H. As for the experimental part:
as §2, §3

The test system of the next assay is KG-1 cells. Nature of the assay: Cell viability CTG assay, KG-1. As to conditions: Homo sapiens; KG-1, 72 h, 0.001-50 μM; read-out: KG-1 Geomean absolute IC50 by molecule, 72 H. The method, then:
as §2, §3

In a further assay the test system is H929 cells. Nature of the assay: Cell viability CTG assay, H929. As to conditions: H929, 72 h, 0.001-50 μM; for pIC50: Homo sapiens, NCI-H929, read-out: Geomean absolute IC50 by molecule, 72 H. Further details: key to Geomean absolute IC50 by molecule, 72 H: Inactive represents IC50 > 50 μM; C represents 50 μM ≥ IC50 > 5 μM. The method, then: as §2, §3
Another assay deals with T2, Ikaros (IKZF1) (Homo sapiens, UniProt Q13422+Q96SW2).
T2 construct: Ikaros degradation in the H929 cell line was investigated; endogenous in cells; host or cells: H929
T2 sequence (Q13422 whole entry): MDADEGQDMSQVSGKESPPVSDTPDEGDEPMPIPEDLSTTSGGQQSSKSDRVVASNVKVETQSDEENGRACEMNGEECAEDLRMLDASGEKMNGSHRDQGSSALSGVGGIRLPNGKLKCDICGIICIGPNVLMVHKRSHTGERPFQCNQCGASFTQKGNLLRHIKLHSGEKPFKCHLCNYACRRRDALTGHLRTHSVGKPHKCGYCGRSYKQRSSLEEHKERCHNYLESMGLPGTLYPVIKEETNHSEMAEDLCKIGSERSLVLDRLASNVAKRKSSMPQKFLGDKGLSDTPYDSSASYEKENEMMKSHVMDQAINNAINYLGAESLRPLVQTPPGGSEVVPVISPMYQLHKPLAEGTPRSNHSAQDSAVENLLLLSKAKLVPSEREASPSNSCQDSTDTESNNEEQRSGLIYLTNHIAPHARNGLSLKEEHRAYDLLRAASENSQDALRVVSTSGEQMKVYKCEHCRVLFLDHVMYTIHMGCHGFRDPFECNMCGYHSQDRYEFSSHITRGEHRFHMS
T2 sequence (Q96SW2 whole entry): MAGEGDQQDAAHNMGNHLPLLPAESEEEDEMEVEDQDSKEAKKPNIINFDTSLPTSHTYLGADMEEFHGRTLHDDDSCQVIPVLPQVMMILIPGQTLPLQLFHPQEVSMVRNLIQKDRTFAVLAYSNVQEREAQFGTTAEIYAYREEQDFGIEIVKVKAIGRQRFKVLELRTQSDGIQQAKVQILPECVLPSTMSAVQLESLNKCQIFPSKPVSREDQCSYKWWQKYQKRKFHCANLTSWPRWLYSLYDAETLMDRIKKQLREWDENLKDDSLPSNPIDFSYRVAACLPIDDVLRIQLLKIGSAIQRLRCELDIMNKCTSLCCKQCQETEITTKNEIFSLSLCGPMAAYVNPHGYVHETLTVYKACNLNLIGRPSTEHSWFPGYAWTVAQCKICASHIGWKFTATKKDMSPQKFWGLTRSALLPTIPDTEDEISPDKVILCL
T2 sequence (Q16531 whole entry partner): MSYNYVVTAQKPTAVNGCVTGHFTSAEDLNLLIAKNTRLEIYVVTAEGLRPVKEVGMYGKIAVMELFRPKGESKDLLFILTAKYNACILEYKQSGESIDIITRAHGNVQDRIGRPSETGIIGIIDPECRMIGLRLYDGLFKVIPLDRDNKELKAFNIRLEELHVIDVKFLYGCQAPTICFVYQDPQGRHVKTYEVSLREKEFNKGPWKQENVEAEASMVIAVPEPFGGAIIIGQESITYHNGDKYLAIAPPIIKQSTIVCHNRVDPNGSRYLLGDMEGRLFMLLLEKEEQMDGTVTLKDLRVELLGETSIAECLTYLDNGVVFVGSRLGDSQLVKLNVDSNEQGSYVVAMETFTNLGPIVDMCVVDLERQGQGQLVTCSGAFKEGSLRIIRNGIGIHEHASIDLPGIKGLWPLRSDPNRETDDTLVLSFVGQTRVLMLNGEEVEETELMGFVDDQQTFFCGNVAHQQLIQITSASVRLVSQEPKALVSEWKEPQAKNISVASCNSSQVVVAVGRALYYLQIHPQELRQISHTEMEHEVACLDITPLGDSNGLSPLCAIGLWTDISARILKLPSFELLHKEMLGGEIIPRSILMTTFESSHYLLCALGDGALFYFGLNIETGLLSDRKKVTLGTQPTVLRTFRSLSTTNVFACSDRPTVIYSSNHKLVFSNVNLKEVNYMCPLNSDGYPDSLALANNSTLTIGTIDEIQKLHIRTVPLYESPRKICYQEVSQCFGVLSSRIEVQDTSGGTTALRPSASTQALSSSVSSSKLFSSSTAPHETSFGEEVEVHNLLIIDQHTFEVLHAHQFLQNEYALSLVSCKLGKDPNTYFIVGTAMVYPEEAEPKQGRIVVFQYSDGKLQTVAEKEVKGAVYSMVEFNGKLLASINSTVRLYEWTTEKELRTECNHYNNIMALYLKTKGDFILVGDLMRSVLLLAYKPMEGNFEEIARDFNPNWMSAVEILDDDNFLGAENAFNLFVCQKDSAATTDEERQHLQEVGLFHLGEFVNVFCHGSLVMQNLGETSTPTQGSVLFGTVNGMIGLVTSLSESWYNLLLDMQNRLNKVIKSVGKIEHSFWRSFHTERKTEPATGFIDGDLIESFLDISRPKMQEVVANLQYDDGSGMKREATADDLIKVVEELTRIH
Nature of the assay: Ikaros degradation assay, H929 cell line. To be noted: H929 cells, 24 h; for inhibition at 20 µM / inhibition at 10 µM: NCI-H929, read-out: % of IKZF1 protein reduction. As for the experimental part: as §1

For another assay, the target named is T3, Aiolos (IKZF3) (Homo sapiens, UniProt Q96SW2+Q9UKT9).
T3 construct: Aiolos degradation in the H929 cell line was investigated; endogenous in cells; host or cells: H929
T3 sequence (Q9UKT9 whole entry): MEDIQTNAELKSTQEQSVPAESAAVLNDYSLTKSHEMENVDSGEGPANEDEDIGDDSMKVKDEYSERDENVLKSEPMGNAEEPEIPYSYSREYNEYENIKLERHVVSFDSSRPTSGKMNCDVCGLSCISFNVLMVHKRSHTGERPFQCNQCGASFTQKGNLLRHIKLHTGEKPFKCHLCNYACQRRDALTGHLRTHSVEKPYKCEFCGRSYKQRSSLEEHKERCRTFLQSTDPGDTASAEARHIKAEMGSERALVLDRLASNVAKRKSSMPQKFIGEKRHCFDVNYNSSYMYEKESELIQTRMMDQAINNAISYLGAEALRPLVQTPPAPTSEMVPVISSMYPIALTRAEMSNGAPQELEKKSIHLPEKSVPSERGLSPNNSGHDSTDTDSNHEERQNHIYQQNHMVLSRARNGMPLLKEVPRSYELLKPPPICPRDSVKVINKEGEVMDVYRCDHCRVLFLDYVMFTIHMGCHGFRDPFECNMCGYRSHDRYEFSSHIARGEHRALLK
T3 sequence (Q96SW2 whole entry): as the sequence (Q96SW2 whole entry) above
T3 sequence (Q16531 whole entry partner): as the sequence (Q16531 whole entry partner) above
Nature of the assay: Aiolos degradation assay, H929 cell line. To be noted: H929 cells, 20 μM, 24 h. As for the experimental part:
as §1

In the next assay the target is T4, GSPT1 (Homo sapiens, UniProt P15170+Q96SW2).
T4 construct: GSPT1 degradation in the Hep3B cell line was investigated; endogenous in cells; host or cells: Hep3B
T4 sequence (P15170 whole entry): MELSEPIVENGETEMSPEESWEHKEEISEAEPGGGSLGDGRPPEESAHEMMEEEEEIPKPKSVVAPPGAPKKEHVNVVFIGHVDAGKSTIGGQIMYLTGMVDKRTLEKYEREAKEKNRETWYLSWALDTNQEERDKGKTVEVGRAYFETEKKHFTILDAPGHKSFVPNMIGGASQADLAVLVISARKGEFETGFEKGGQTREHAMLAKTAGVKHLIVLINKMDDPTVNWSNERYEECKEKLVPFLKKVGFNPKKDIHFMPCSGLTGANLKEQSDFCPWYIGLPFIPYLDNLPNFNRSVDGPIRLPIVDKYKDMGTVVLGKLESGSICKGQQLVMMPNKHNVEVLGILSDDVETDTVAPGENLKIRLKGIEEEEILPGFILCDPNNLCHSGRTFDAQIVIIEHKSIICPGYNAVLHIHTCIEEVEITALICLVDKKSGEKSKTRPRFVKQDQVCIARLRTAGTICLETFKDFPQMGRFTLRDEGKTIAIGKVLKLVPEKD
T4 sequence (Q96SW2 whole entry): as the sequence (Q96SW2 whole entry) above
T4 sequence (Q16531 whole entry partner): as the sequence (Q16531 whole entry partner) above
Nature of the assay: GSPT1 degradation assay, Hep3B cell line. To be noted: HEP3B cells, 24 h, read-out: % of GSPT1 protein reduction. The method, then:
Hep3B cells were maintained in EMEM medium, supplemented with penicillin/streptomycin and 10% Fetal Bovine Serum (FBS). Cells were seeded on 6- or 12-well plates, and the compounds to be tested were added at the desired concentration range. Final DMSO concentration was 0.25%. After 24 h incubation (37° C., 5% CO2), cells were harvested, washed and cell lysates were prepared using RIPA lysis buffer. The amount of protein was determined via BCA assay, and the appropriate quantity was then loaded on the precast gel for the protein separation. After primary and secondary Ab staining, the membranes were washed and signals developed. The densitometry analysis was implemented to obtain the numeric values used later in the protein level evaluation process. Densitometry values were normalized to the loading control and calculated as [%] of the DMSO control.

These results are taken from patent US20240294489A1 (Captor Therapeutics S.A., priority 2020, published 2024).

SMILES strings stand for the structures. pIC50: −log10 of the molar value. Like-named read-outs stand apart in the source and are kept apart here.

Broadly, the pIC50 is the negative decadic logarithm of the IC50, by convention in mol/L.

T1 sequence (Q9UJQ4 whole entry): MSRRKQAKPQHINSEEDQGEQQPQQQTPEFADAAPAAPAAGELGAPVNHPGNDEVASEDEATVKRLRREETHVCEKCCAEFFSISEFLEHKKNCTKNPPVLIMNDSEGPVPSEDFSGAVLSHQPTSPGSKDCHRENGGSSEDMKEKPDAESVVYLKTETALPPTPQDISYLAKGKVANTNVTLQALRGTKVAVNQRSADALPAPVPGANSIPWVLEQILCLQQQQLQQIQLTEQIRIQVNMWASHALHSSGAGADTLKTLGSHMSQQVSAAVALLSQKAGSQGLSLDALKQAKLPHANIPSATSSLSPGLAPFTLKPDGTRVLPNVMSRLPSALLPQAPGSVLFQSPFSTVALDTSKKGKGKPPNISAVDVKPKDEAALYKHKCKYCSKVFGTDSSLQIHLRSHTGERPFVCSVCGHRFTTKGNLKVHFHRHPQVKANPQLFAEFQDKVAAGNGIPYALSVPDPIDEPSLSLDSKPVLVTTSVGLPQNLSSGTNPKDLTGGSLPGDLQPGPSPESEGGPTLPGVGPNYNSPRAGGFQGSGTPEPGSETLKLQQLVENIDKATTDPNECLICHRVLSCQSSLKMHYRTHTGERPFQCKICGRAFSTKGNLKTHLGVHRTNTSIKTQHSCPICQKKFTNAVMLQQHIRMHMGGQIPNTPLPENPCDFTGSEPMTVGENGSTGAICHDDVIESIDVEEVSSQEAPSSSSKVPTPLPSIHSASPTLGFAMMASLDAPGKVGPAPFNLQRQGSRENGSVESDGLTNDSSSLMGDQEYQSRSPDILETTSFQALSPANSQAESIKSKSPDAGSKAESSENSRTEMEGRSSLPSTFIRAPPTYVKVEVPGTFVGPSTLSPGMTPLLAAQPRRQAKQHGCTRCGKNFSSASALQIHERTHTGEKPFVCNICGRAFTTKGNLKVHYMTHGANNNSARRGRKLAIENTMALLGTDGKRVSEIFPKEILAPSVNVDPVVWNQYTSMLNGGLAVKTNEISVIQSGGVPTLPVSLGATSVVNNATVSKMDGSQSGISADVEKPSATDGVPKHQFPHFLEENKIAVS
T1 sequence (Q96SW2 whole entry): as the sequence (Q96SW2 whole entry) above
T1 sequence (Q16531 whole entry partner): as the sequence (Q16531 whole entry partner) above

Regarding `O=C1CCC(N2C(=O)c3ccccc3C2=O)C(=O)N1` (centres unmarked) [Thalidomide, reference compound], on SALL4 (0.01 μM, FIG. 1), the “degradation of SALL4” value is reported as “lower activity”. For the same compound, the “% of SALL4 protein reduction” value at SALL4 came to 53%.

Regarding `O=C(CCc1ccc(Cl)cc1)NCc1ccc2c(c1)CN(C1CCC(=O)NC1=O)C2=O` (centres unmarked) [Compound 42], the pIC50 in the assay with Kelly cells, in the assay with Hep3B cells and in the assay with KG-1 cells was not below 7.00 each time.

With `CC(=O)Oc1cc(C)cc(C)c1C(C)(C)CC(=O)NCc1ccc2c(c1)CN(C1CCC(=O)NC1=O)C2=O` (centres unmarked) [Compound 21, 2-[1-({[2-(2,6-dioxopiperidin-3-yl)-1-oxo-2,3-dihydro-1H-isoindol-5-yl]methyl}carbamoyl)-2-methylpropan-2-yl]-3,5-dimethylphenyl acetate], the pIC50 in the assay with Kelly cells is 5.30 to 6.00; with Hep3B cells, not below 7.00; with KG-1 cells it was 5.30 to 6.00. Also, the “% of SALL4 protein reduction” value on SALL4 is recorded as more than 80%. Also, in the assay with H929 cells, the “Geomean absolute IC50 by molecule, 72 H” value is recorded as “Inactive”.

As to `Cc1oc(=O)oc1COC(=O)NCc1ccc2c(c1)CN(C1CCC(=O)NC1=O)C2=O` (centres unmarked) [Compound 24, (5-methyl-2-oxo-2H-1,3-dioxol-4-yl)methyl N-{[2-(2,6-dioxopiperidin-3-yl)-1-oxo-2,3-dihydro-1H-isoindol-5-yl]methyl}carbamate], the inhibition at 20 µM at Ikaros (IKZF1) (20 uM) fell in the range of 0 to 24%. Also, the pIC50 in the assay with Kelly cells is 5.30 to 6.00; in the assay on Hep3B cells it was not below 7.00; in the assay on KG-1 cells, not below 7.00. For the same compound, in the assay on H929 cells, the “Geomean absolute IC50 by molecule, 72 H” value is on record as “Inactive”.

As to `C[C@@H](O)[C@H](N)C(=O)NCc1ccc2c(c1)CN(C1CCC(=O)NC1=O)C2=O` (stereo partly drawn) [Compound 39, (2S,3R)-2-amino-N-((2-(2,6-dioxopiperidin-3-yl)-1-oxoisoindolin-5-yl)methyl)-3-hydroxybutanamide], the inhibition at 20 µM on Ikaros (IKZF1) (20 uM) lay in the range of 0 to 24%. Further, the pIC50 was 5.30 to 6.00 with Kelly cells, 6.00 to 7.00 in the assay with Hep3B cells and 5.30 to 6.00 with KG-1 cells. In the assay on H929 cells, the “Geomean absolute IC50 by molecule, 72 H” value is “Inactive”.

On to `CC(C)C(NC(=O)OC(C)(C)C)C(=O)NCc1ccc2c(c1)CN(C1CCC(=O)NC1=O)C2=O` (centres unmarked) [Compound 31, tert-butyl (1-(((2-(2,6-dioxopiperidin-3-yl)-1-oxoisoindolin-5-yl)methyl)amino)-3-methyl-1-oxobutan-2-yl)carbamate], for which the inhibition at 20 µM on Ikaros (IKZF1) (20 uM) fell in the range of 0 to 24%. The pIC50 is 5.30 to 6.00 with Kelly cells, 6.00 to 7.00 in the assay on Hep3B cells and 5.30 to 6.00 with KG-1 cells. The “Geomean absolute IC50 by molecule, 72 H” value with H929 cells is on record as “Inactive”.

Regarding `CCCCCC(=O)NCc1ccc2c(c1)CN(C1CCC(=O)NC1=O)C2=O` (centres unmarked) [Compound 100, reference compound], the inhibition at 10 µM on Ikaros (IKZF1) (10 uM, numeric values) stood at 52%. Further, the “% of IKZF3 protein reduction” value on Aiolos (IKZF3) (numeric values) is 52%.

As to `[2H]C([2H])(N)c1ccc2c(c1)CN(C1CCC(=O)NC1=O)C2=O` (centres unmarked) [Compound 2, 3-(5-(aminomethyl-d2)-1-oxoisoindolin-2-yl)piperidine-2,6-dione], the inhibition at 10 µM on Ikaros (IKZF1) (10 uM) was 0 to 24%; at GSPT1 (10 uM) it was 80 to 100%. Moreover, the pIC50 was 6.00 to 7.00 in the assay with Kelly cells, not below 7.00 in the assay with Hep3B cells, 6.00 to 7.00 in the assay on KG-1 cells and 4.30 to 5.30 in the assay with H929 cells. In addition, the “% of SALL4 protein reduction” value on SALL4 is recorded as more than 80%.

Take `CC(C)(C)OC(=O)N[C@@H](Cc1cnc[nH]1)C(=O)NCc1ccc2c(c1)CN([C@@H]1CCC(=O)NC1=O)C2=O` [Compound 29, tert-butyl ((S)-1-(((2-((R)-2,6-dioxopiperidin-3-yl)-1-oxoisoindolin-5-yl)methyl)amino)-3-(1H-imidazol-4-yl)-1-oxopropan-2-yl)carbamate]: the inhibition at 20 µM at Ikaros (IKZF1) (20 uM) was in the range of 0 to 24%. Moreover, the “% of IKZF3 protein reduction” value at Aiolos (IKZF3) is listed as “C (C represents 0-24% of IKZF1 protein reduction)”.

As for `N[C@@H](Cc1cnc[nH]1)C(=O)NCc1ccc2c(c1)CN([C@H]1CCC(=O)NC1=O)C2=O` [Compound 28, (S)-2-amino-N-((2-((S)-2,6-dioxopiperidin-3-yl)-1-oxoisoindolin-5-yl)methyl)-3-(1H-imidazol-4-yl)propanamide], on Ikaros (IKZF1) (10 uM), the inhibition at 10 µM lay in the range of 0 to 24%. At Aiolos (IKZF3), the “% of IKZF3 protein reduction” value is on record as “C (C represents 0-24% of IKZF1 protein reduction)”. For the same compound, the pIC50 in the assay with Kelly cells, in the assay on Hep3B cells and with KG-1 cells was 6.00 to 7.00 in each case. For the same compound, the inhibition at 1 µM at GSPT1 (1 uM) was 80 to 100%. Moreover, the “Geomean absolute IC50 by molecule, 72 H” value in the assay on H929 cells was “Inactive”.

For the compound `NC(Cc1c[nH]c2ccccc12)C(=O)NCc1ccc2c(c1)CN(C1CCC(=O)NC1=O)C2=O` (centres unmarked) [Compound 37, 2-amino-N-((2-(2,6-dioxopiperidin-3-yl)-1-oxoisoindolin-5-yl)methyl)-3-(1H-indol-3-yl)propanamide], at Ikaros (IKZF1) (20 uM), the inhibition at 20 µM was 0 to 24%. Moreover, the values for the pIC50 with Kelly cells, in the assay with Hep3B cells and in the assay with KG-1 cells were 6.00 to 7.00, not below 7.00 and 6.00 to 7.00, respectively. Also, the “Geomean absolute IC50 by molecule, 72 H” value with H929 cells is recorded as “Inactive”.

In the case of `O=C(CCc1c[nH]c2ccccc12)NCc1ccc2c(c1)CN(C1CCC(=O)NC1=O)C2=O` (centres unmarked) [Compound 36], the pIC50 in the assay with Kelly cells, with Hep3B cells and with KG-1 cells was not below 7.00 each time.

Regarding `CC(OC(=O)NCc1ccc2c(c1)CN(C1CCC(=O)NC1=O)C2=O)OC(=O)C(C)C` (centres unmarked) [Compound 23, 1-((((2-(2,6-dioxopiperidin-3-yl)-1-oxoisoindolin-5-yl)methyl)carbamoyl)oxy)ethyl isobutyrate], the inhibition at 20 µM at Ikaros (IKZF1) (20 uM) fell in the range of 0 to 24%. Further, the pIC50 in the assay with Hep3B cells is not below 7.00. Besides, the “% of SALL4 protein reduction” value at SALL4 is reported as more than 80%. Also, the “Geomean absolute IC50 by molecule, 72 H” value in the assay on H929 cells was “Inactive”.

Regarding `NCC(=O)NCc1ccc2c(c1)CN(C1CCC(=O)NC1=O)C2=O` (centres unmarked) [Compound 25, 2-amino-N-((2-(2,6-dioxopiperidin-3-yl)-1-oxoisoindolin-5-yl)methyl)acetamide], at Ikaros (IKZF1) (20 uM), the inhibition at 20 µM is 0 to 24%. For the same compound, the pIC50 in the assay on Kelly cells is 5.30 to 6.00; in the assay with Hep3B cells, 6.00 to 7.00; in the assay with KG-1 cells, 5.30 to 6.00. Besides, the “Geomean absolute IC50 by molecule, 72 H” value in the assay with H929 cells is “Inactive”.

In the case of `CC(=O)Oc1ccc(COC(=O)NCc2ccc3c(c2)CN(C2CCC(=O)NC2=O)C3=O)cc1` (centres unmarked) [Compound 22, 4-(((((2-(2,6-dioxopiperidin-3-yl)-1-oxoisoindolin-5-yl)methyl)carbamoyl)oxy)methyl)phenyl acetate], the pIC50 was 6.00 to 7.00 in the assay with Kelly cells, not below 7.00 with Hep3B cells, not below 7.00 in the assay with KG-1 cells and 4.30 to 5.30 in the assay on H929 cells.

Consider `Nc1cccc2c1C(=O)N(C1CCC(=O)NC1=O)C2=O` (centres unmarked) [Pomalidomide, pomalidomide, reference compound], for which the “% of IKZF1 protein reduction” value on Ikaros (IKZF1) (10 uM, numeric values) stood at 86%; on Ikaros (IKZF1) (20 uM, numeric values), 91%. For the same compound, at Aiolos (IKZF3) (numeric values), the “% of IKZF3 protein reduction” value is 87%. Moreover, in the assay with H929 cells (numeric values), the pIC50 was 7.21.
